{"source": "patent US20140037570A1", "about": "“NBPT solution for preparing urease inhibited urea fertilizers prepared from N-alkyl; N, N-alkyl; and N-alkyl-N-alkoxy amino alcohols” (Whitehurst Associates Inc., priority 2012, published 2014)", "origin": "cited, not measured here", "conditions": "background statement on NBPT", "data": [{"compound": "CCCCNP(N)(N)=S", "note": "[NBPT, N-(n-butyl)thiophosphoric triamide]", "values": [{"measurement": "stability", "result": "thermally unstable"}]}]}
